Measured values taken from patent publication US20100168038A1, “USE OF COMPOUNDS IN COMBINATION WITH GAMMA-IRRADIATION FOR THE TREATMENT OF CANCER” (priority 2006, published 2010).
Residues, ends and D or L forms follow the SMILES beside them.

What was measured:
DBA/2-c-Myc/Bcl-xL cells = assay: Tumor growth of DBA/2-c-Myc/Bcl-xL cells in DBA/2 mice; assay type: in vivo, mouse
Excerpt: Tumor Growth Experiments. Tumor cells were washed in PBS and resuspended in a volume of 200 micro-l per inoculate. The cells were then inoculated into the right flank at 10^6 per mouse and growth of the tumor was monitored by measurement two times per week. The initiation of anti-tumor treatment of the mice was to some extent individualized according to when tumor growth started in each mouse. The mice were irradiated with 4 Gy prior to tumor inoculation in order to inhibit anti-tumor immune responses. The tumor volume was calculated as the mean volume in mice with tumors growth, according to (a1×a2×a3)/2 (the numbers ai denote tumor diameter, width and depth). The time of first palpation varied between different mice, although the general pattern of growth was similar in virtually all of the mice. In most diagrams a log-scale is used to better visualize the therapeutic effects against small tumors, i.e. the presence of complete rejections. For inhibition of TPPII in vivo we made intraperitoneal injections with 13.8 mg per kg of body weight (14 micro-l of a 50 mM solution/mouse) of the Subtilisin inhibitor Z-Gly-Leu-Ala-OH (Z-GLA-OH, Bachem, Weil am Rhein, Germany) twice per week, diluted into 200 micro-l PBS. All gamma-irradiations were full body exposures.
Retroviral transduction and transplantation. […]
Detection of GFP and YFP expression was performed using a Cyan™ ADP cytometer (Dako, Glostrup, Denmark) where after excitation at 488 nm, a 525-nm long-pass dichroic mirror was used to initially separate the signals followed by a 510/21-nm bandpass filter for detection of EGFP and a 550/30-nm band pass filter for EYFP. Data were analyzed using FlowJo software (Tree Star, Inc., San Carlos, Calif.). […]

[1] = system: HeLa cells (human cervical carcinoma); assay: Tumor growth of HeLa cells in CB.17 SCID mice, Z-GLA-OH with gamma-irradiation; assay type: in vivo; conditions: Z-GLA-OH + gamma-irradiation 1.5 Gy/dose
Stability in serum = assay type: in vitro ADME
[2] = Toxicity study in vivo, single agent; conditions: doses up to 100 mg/kg, preliminary study

CC(C)C[C@H](NC(=O)CNC(=O)OCc1ccccc1)C(=O)N[C@@H](C)C(=O)O [Z-GLA-OH, Z-Gly-Leu-Ala-OH] (HELM PEPTIDE1{[O=C(OCc1ccccc1)[*:2]].G.L.A}$$$$V2.0)
tumor cells in lung, spleen or liver (DBA/2-c-Myc/Bcl-xL cells; Z-GLA-OH 13.8 mg/kg + gamma-irradiation, flow cytometry, histology): failed to find tumor cells | tumor response (DBA/2-c-Myc/Bcl-xL cells; Z-GLA-OH only, no gamma-irradiation): no reduction of tumor size | tumor response (DBA/2-c-Myc/Bcl-xL cells; established DBA/2-c-Myc/Bcl-xL tumors, Z-GLA-OH 13.8 mg/kg + 4 Gy doses of gamma-irradiation): complete tumor regression | tumor response [1]: strong tumor regression | stability in serum (Stability in serum): relatively stable in serum | toxicity in vivo [2]: minor effects
